Test results: patent US20230114728A1 (Venatorx Pharmaceuticals, Inc., priority 2019, published 2023)
Values after ≈ are worked out from the molar mass of the structure shown.

Columns and labels:
Test in all cases: Broth microdilution MIC in CAMHB
Type in all cases: cell-based
E. coli D22 = conditions: Escherichia coli; E. coli D22 (hyper-permeable); MHB; read-out: Minimum Inhibitory Concentration, E. coli D22
Procedure, shortened: (§1)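 Per CLSI broth microdilution, colonies were grown 3-5 h at 37° C in cation-adjusted Mueller Hinton broth, then diluted to a starting inoculum of 2-8×10^5 CFU/mL against 2-fold serial compound dilutions. Plates were incubated 16-20 h at 37° C, and MIC was read visually as the lowest concentration with no growth.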

P. aeruginosa ATCC 27853 = conditions: Pseudomonas aeruginosa, ATCC27853; MHB; read-out: Minimum Inhibitory Concentration, P. aeruginosa ATCC 27853
Procedure, shortened: as §1

A. baumannii ATCC 19606 = conditions: Acinetobacter baumannii, ATCC19606; MHB; read-out: Minimum Inhibitory Concentration, A. baumannii ATCC 19606
Procedure, shortened: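 Hyper-permeable or efflux-deficient strains serve to probe outer-membrane penetration. Growth inhibition is scored visually after 16-20 h at 37° C in CAMHB, starting from 2-8×10^5 CFU/mL.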

E. coli AG100 = conditions: Escherichia coli; E. coli AG100 (wild-type parent); MHB; read-out: Minimum Inhibitory Concentration, E. coli AG100
Procedure, shortened: as §1

[1] = tested on: P. aeruginosa (ΔmexAB-oprM); conditions: Pseudomonas aeruginosa, read-out: Minimum Inhibitory Concentration, P. aeruginosa ΔmexAB-OprM
Procedure, shortened: as §1

P. aeruginosa ATCC 35151 = conditions: Pseudomonas aeruginosa, ATCC35151; MHB; hyper-permeable strain; read-out: Minimum Inhibitory Concentration, P. aeruginosa ATCC 35151
Procedure, shortened: as §1

E. coli AG100A = conditions: Escherichia coli, read-out: Minimum Inhibitory Concentration, E. coli AG100A
Procedure, shortened: as §1

[2] = tested on: K. pneumoniae UMM producing SHV-5 and KPC-2; conditions: Klebsiella pneumoniae, read-out: Minimum Inhibitory Concentration, K. pneumoniae UMM
Procedure, shortened: as §1

E. coli ATCC 25922 = conditions: Escherichia coli, ATCC25922; E. coli ATCC 25922; MHB; read-out: Minimum Inhibitory Concentration, E. coli 25922
Procedure, shortened: as §1

[3] = tested on: K. pneumoniae 848844 producing SHV-11 and KPC-2; conditions: Klebsiella pneumoniae, read-out: Minimum Inhibitory Concentration, K. pneumoniae 848844
Procedure, shortened: as §1

[4] = tested on: K. pneumoniae SI-117 producing VIM-1; conditions: Klebsiella pneumoniae, read-out: Minimum Inhibitory Concentration, K. pneumoniae SI-117
Procedure, shortened: as §1

E. coli 901C = conditions: Escherichia coli; E. coli 901C (hyper-permeable); MHB; read-out: Minimum Inhibitory Concentration, E. coli 901C
Procedure, shortened: as §1

| SMILES | MIC (E. coli D22) [µg/mL] | MIC (P. aeruginosa ATCC 27853) [µg/mL] | MIC (A. baumannii ATCC 19606) [µg/mL] | MIC (E. coli AG100) [µg/mL] | MIC [1] [µg/mL] | MIC (P. aeruginosa ATCC 35151) [µg/mL] | MIC (E. coli AG100A) [µg/mL] | MIC [2] [µg/mL] | MIC (E. coli ATCC 25922) [µg/mL] | MIC [3] [µg/mL] | MIC [4] [µg/mL] | MIC (E. coli 901C) [µg/mL] |
| --- | --- | --- | --- | --- | --- | --- | --- | --- | --- | --- | --- | --- |
| CCN1CCN(C(=O)NC(C(=O)N[C@H]2Cc3cccc(C(=O)O)c3OB2O)c2cc(Cl)c(O)cc2F)C(=O)C1=O (stereo partly drawn) [Example 101, (3R)-3-(2-(5-chloro-2-fluoro-4-hydroxyphenyl)-2-(4-ethyl-2,3-dioxopiperazine-1-carboxamido)acetamido)-2-hydroxy-3,4-dihydro-2H-benzo[e][1,2]oxaborinine-8-carboxylic acid] | 2 to 4 (≈ 3.47 to 6.94 µM) | > 128 | > 128 | 32 to 64 (≈ 55.5 to 111 µM) | 8 to 16 (≈ 13.9 to 27.7 µM) | 0.5 to 1 (≈ 0.867 to 1.73 µM) | 2 to 4 (≈ 3.47 to 6.94 µM) | 32 to 64 (≈ 55.5 to 111 µM) | 32 to 64 (≈ 55.5 to 111 µM) | > 128 | > 128 | < 0.25 |
| CCN1CCN(C(=O)NC(C(=O)N[C@H]2Cc3cccc(C(=O)O)c3OB2O)c2cc(F)c(O)cc2Cl)C(=O)C1=O (stereo partly drawn) [Example 103, (3R)-3-(2-(2-chloro-5-fluoro-4-hydroxyphenyl)-2-(4-ethyl-2,3-dioxopiperazine-1-carboxamido)acetamido)-2-hydroxy-3,4-dihydro-2H-benzo[e][1,2]oxaborinine-8-carboxylic acid] | 2 to 4 (≈ 3.47 to 6.94 µM) | > 128 | > 128 | 32 to 64 (≈ 55.5 to 111 µM) | 8 to 16 (≈ 13.9 to 27.7 µM) | 2 to 4 (≈ 3.47 to 6.94 µM) | 2 to 4 (≈ 3.47 to 6.94 µM) | 32 to 64 (≈ 55.5 to 111 µM) | 32 to 64 (≈ 55.5 to 111 µM) | > 128 | > 128 | < 0.25 |
| CCN1CCN(C(=O)NC(C(=O)N[C@H]2Cc3cccc(C(=O)O)c3OB2O)c2cc(F)c(O)cc2F)C(=O)C1=O (stereo partly drawn) [Example 104, (3R)-3-(2-(2,5-difluoro-4-hydroxyphenyl)-2-(4-ethyl-2,3-dioxopiperazine-1-carboxamido)acetamido)-2-hydroxy-3,4-dihydro-2H-benzo[e][1,2]oxaborinine-8-carboxylic acid] | 2 to 4 (≈ 3.57 to 7.14 µM) | > 128 | > 128 | 32 to 64 (≈ 57.1 to 114 µM) | 8 to 16 (≈ 14.3 to 28.6 µM) | 2 to 4 (≈ 3.57 to 7.14 µM) | 2 to 4 (≈ 3.57 to 7.14 µM) | 32 to 64 (≈ 57.1 to 114 µM) | 32 to 64 (≈ 57.1 to 114 µM) | > 128 | 32 to 64 (≈ 57.1 to 114 µM) | < 0.25 |
| CCN1CCN(C(=O)NC(C(=O)N[C@H]2Cc3cccc(C(=O)O)c3OB2O)c2c(F)c(O)cc(O)c2F)C(=O)C1=O (stereo partly drawn) [Example 106, (3R)-3-(2-(2,6-difluoro-3,5-dihydroxyphenyl)-2-(4-ethyl-2,3-dioxopiperazine-1-carboxamido)acetamido)-2-hydroxy-3,4-dihydro-2H-benzo[e][1,2]oxaborinine-8-carboxylic acid] | 8 to 16 (≈ 13.9 to 27.8 µM) | > 128 | > 128 | > 128 | 8 to 16 (≈ 13.9 to 27.8 µM) | 2 to 4 (≈ 3.47 to 6.94 µM) | 32 to 64 (≈ 55.5 to 111 µM) | > 128 | > 128 | > 128 | > 128 | 2 to 4 (≈ 3.47 to 6.94 µM) |
| CCN1CCN(C(=O)NC(C(=O)N[C@H]2Cc3cccc(C(=O)O)c3OB2O)c2cccc(CNS(N)(=O)=O)c2)C(=O)C1=O (stereo partly drawn) [Example 107, (3R)-3-(2-(4-ethyl-2,3-dioxopiperazine-1-carboxamido)-2-(3-((sulfamoylamino)methyl)phenyl)acetamido)-2-hydroxy-3,4-dihydro-2H-benzo[e][1,2]oxaborinine-8-carboxylic acid] | 8 to 16 (≈ 13 to 26 µM) | > 128 | > 128 | > 128 | 8 to 16 (≈ 13 to 26 µM) | 8 to 16 (≈ 13 to 26 µM) | 2 to 4 (≈ 3.24 to 6.49 µM) | > 128 | 32 to 64 (≈ 51.9 to 104 µM) | > 128 | > 128 | 0.5 to 1 (≈ 0.811 to 1.62 µM) |
| CCN1CCN(C(=O)NC(C(=O)N[C@H]2Cc3cccc(C(=O)O)c3OB2O)c2cccc(CN)c2)C(=O)C1=O (stereo partly drawn) [Example 108, (3R)-3-(2-(3-(aminomethyl)phenyl)-2-(4-ethyl-2,3-dioxopiperazine-1-carboxamido)acetamido)-2-hydroxy-3,4-dihydro-2H-benzo[e][1,2]oxaborinine-8-carboxylic acid] | 8 to 16 (≈ 14.9 to 29.8 µM) | > 128 | > 128 | 32 to 64 (≈ 59.6 to 119 µM) | 32 to 64 (≈ 59.6 to 119 µM) | 8 to 16 (≈ 14.9 to 29.8 µM) | 2 to 4 (≈ 3.72 to 7.44 µM) | 32 to 64 (≈ 59.6 to 119 µM) | 8 to 16 (≈ 14.9 to 29.8 µM) | > 128 | 32 to 64 (≈ 59.6 to 119 µM) | 2 to 4 (≈ 3.72 to 7.44 µM) |
| NCCN1CCN(C(=O)NC(C(=O)N[C@H]2Cc3cccc(C(=O)O)c3OB2O)c2cc(F)c(O)cc2Cl)C(=O)C1=O (stereo partly drawn) [Example 109, (3R)-3-(2-(4-(2-aminoethyl)-2,3-dioxopiperazine-1-carboxamido)-2-(2-chloro-5-fluoro-4-hydroxyphenyl)acetamido)-2-hydroxy-3,4-dihydro-2H-benzo[e][1,2]oxaborinine-8-carboxylic acid] | 8 to 16 (≈ 13.5 to 27 µM) | > 128 | > 128 | > 128 | 8 to 16 (≈ 13.5 to 27 µM) | 2 to 4 (≈ 3.38 to 6.76 µM) | 8 to 16 (≈ 13.5 to 27 µM) | 32 to 64 (≈ 54.1 to 108 µM) | 32 to 64 (≈ 54.1 to 108 µM) | > 128 | > 128 | 2 to 4 (≈ 3.38 to 6.76 µM) |
| CCN1CCN(C(=O)NC(C(=O)N[C@H]2Cc3cccc(C(=O)O)c3OB2O)c2cncc(O)c2)C(=O)C1=O (stereo partly drawn) [Example 112, (3R)-3-(2-(4-ethyl-2,3-dioxopiperazine-1-carboxamido)-2-(5-hydroxypyridin-3-yl)acetamido)-2-hydroxy-3,4-dihydro-2H-benzo[e][1,2]oxaborinine-8-carboxylic acid] | 2 to 4 (≈ 3.81 to 7.61 µM) | > 128 | > 128 | 32 to 64 (≈ 60.9 to 122 µM) | 8 to 16 (≈ 15.2 to 30.5 µM) | 2 to 4 (≈ 3.81 to 7.61 µM) | 2 to 4 (≈ 3.81 to 7.61 µM) | 32 to 64 (≈ 60.9 to 122 µM) | 32 to 64 (≈ 60.9 to 122 µM) | > 128 | > 128 | 0.5 to 1 (≈ 0.952 to 1.9 µM) |
| CCN1CCN(C(=O)NC(C(=O)N[C@H]2Cc3cccc(C(=O)O)c3OB2O)c2cccc(C(=O)O)c2)C(=O)C1=O (stereo partly drawn) [Example 113, (3R)-3-(2-(3-carboxyphenyl)-2-(4-ethyl-2,3-dioxopiperazine-1-carboxamido)acetamido)-2-hydroxy-3,4-dihydro-2H-benzo[e][1,2]oxaborinine-8-carboxylic acid] | 2 to 4 (≈ 3.62 to 7.24 µM) | > 128 | > 128 | 32 to 64 (≈ 57.9 to 116 µM) | 8 to 16 (≈ 14.5 to 29 µM) | 0.5 to 1 (≈ 0.905 to 1.81 µM) | 2 to 4 (≈ 3.62 to 7.24 µM) | 32 to 64 (≈ 57.9 to 116 µM) | 32 to 64 (≈ 57.9 to 116 µM) | > 128 | > 128 | < 0.25 |
